Experiment [1] deals with A549. As to the kind of experiment: Cytotoxicity against human A549 cells at 10 ug/ml. It counts as functional, cell-based.
The test system of experiment [2] is P388. As to the kind of experiment: Cytotoxicity against mouse P388 cells at 10 ug/ml. In kind it is functional, cell-based.
The test system of experiment [3] is TE-671. As to the kind of experiment: Cytotoxicity against human TE671 cells at 10 ug/ml. In kind it is functional, cell-based.
Experiment [4] deals with HCT-8. As to the kind of experiment: Cytotoxicity against human HCT8 cells at 10 ug/ml. It counts as functional, cell-based.
The subject of experiment [5] is KB. As to the kind of experiment: Cytotoxicity against human KB cells at 10 ug/ml. In kind it is functional, cell-based.
The test system of experiment [6] is HCT-8. As to the kind of experiment: Cytotoxicity against human HCT8 cells. Conditions: read-out: ED50 (the source's name). In kind it is functional.
For experiment [7], the system named is P388. As to the kind of experiment: Cytotoxicity against mouse P388 cells. In kind it is functional. Conditions: read-out: ED50 (the source's name).
Experiment [8] relates to A549. The experiment is described as follows: Cytotoxicity against human A549 cells. In kind it is functional. Conditions: read-out: ED50 (the source's name).
Experiment [9] relates to KB. As to the kind of experiment: Cytotoxicity against human KB cells. It counts as functional. Conditions: read-out: ED50 (the source's name).
The subject of experiment [10] is TE-671. The experiment is described as follows: Cytotoxicity against human TE671 cells. In kind it is functional. Conditions: read-out: ED50 (the source's name).

Activity and EC50 data for 5 compounds are collected here from ChEMBL document CHEMBL1158928, “Antitumor agents, 118. The isolation and characterization of bruceanic acid A, its methyl ester, and the new bruceanic acids B, C, and D, from Brucea antidysenterica” (1990).

Values after ≈ are worked out from the molar mass of the structure shown. Active and inactive are the calls of the source. The rule behind the calls is not given here.

As to `COC(=O)[C@@]12OC[C@]34[C@H](CC(=O)[C@H](OC(=O)c5ccccc5)[C@@H]13)C[C@@H](C(C)=O)[C@](C)(CC(=O)O)[C@H]4[C@@H](O)[C@@H]2O`, the outcome in the experiment with A549 [1], in the experiment with P388 [2], with TE-671 [3], in the experiment on HCT-8 [4] and in the experiment with KB [5] was inactive.

Turning to `COC(=O)[C@@]12OC[C@]34[C@H](CC(=O)[C@H](OC(=O)/C=C(\C)C(C)(C)OC(C)=O)[C@@H]13)C[C@@H](C(C)=O)[C@](C)(CC(=O)O)[C@H]4[C@@H](O)[C@@H]2O`, the result in the experiment with A549 [1], in the experiment on P388 [2], in the experiment with TE-671 [3], with HCT-8 [4] and with KB [5] was inactive.

Regarding `COC(=O)[C@@]12OC[C@]34[C@H](CC(=O)[C@H](OC(=O)/C=C(\C)C(C)(C)O)[C@@H]13)C[C@@H](C(C)=O)[C@](C)(CC(=O)O)[C@H]4[C@@H](O)[C@@H]2O` [BRUCEANIC ACID D], the EC50 with HCT-8 [6] stood at 10 µg/mL (≈ 17.6 µM); with P388 [7], 0.77 µg/mL (≈ 1.36 µM); with A549 [8], 10 µg/mL (≈ 17.6 µM).

In the case of `COC(=O)[C@@]12OC[C@]34[C@H](CC(=O)[C@H](OC(=O)/C=C(\C)C(C)C)[C@@H]13)C[C@@H](C(C)=O)[C@](C)(CC(=O)O)[C@H]4[C@@H](O)[C@@H]2O` [BRUCEANIC ACID A], the EC50 is 10 µg/mL (≈ 18.2 µM) with HCT-8 [6], 4.16 µg/mL (≈ 7.56 µM) in the experiment with KB [9], 5.5 µg/mL (≈ 9.99 µM) with TE-671 [10] and 10 µg/mL (≈ 18.2 µM) in the experiment on A549 [8].

`COC(=O)C[C@]1(C)[C@H]2[C@@H](O)[C@H](O)[C@]3(C(=O)OC)OC[C@@]24[C@H](CC(=O)[C@H](OC(=O)/C=C(\C)C(C)C)[C@@H]34)C[C@H]1C(C)=O`: the result with A549 [1], in the experiment on P388 [2], with TE-671 [3], in the experiment on HCT-8 [4] and with KB [5] was inactive.
